Reference: patent publication US12649733B2, “3,6-diamino-pyridazin-3-yl derivatives, pharmaceutical compositions containing them and their uses as pro-apoptotic agents” (LES LABORATOIRES SERVIER, priority 2019, dated 2026)
pIC50, pKi: −log10 of the molar value.

Key:
[1] = tested on: H146 cells; test: H146 cell viability, MTT assay; assay type: cell-based; settings: Homo sapiens, NCI-H146, 48 h, 48 h exposure
Method: (§1) MTT colorimetric assay is based on the mitochondrial reduction of tetrazolium salt by living cells. The viable cell number is proportional to the production of formazan salts, which can be read spectrophotometrically at 540 nm.
(§2) MOLT-4 and H146 cells were purchased from ATCC and cultivated in RPMI 1640 supplemented with 10% heat inactivated fetal bovine serum, penicillin (100 IU/ml), streptomycin (100 μg/ml) and L-glutamine (2 mM). Cells were cultured at 37° C. in a humidified atmosphere containing 5% CO2. Cells were seeded in 96 microwell plates (150 μL per well) and exposed to the compounds for 48 h (3.16 fold serially diluted; 9 concentrations each, triplicates). At the end of incubation time, 15 μL of MTT solution (5 mg/ml) were added per well and the cells were incubated for another 4 h. Then, 100 μL of 10% Sodium Dodecyl Sulfate (SDS)/HCl 10 mM were added per well and the plate was incubated overnight, before measurement of optical density at 540 nm. IC50s were calculated using standard four-parametric curve fitting.

[2] = target: BCLXL (Homo sapiens, UniProt Q07817, V10N/V9A); test: Fluorescence polarisation assay (PUMA-based probe displacement); assay type: binding; note: 20 nM protein, 10 nM fluorescent probe
Method: Fluorescence polarization measures the rotation of a fluorescing species in solution, the larger the molecule the more polarized the fluorescence emission.
[[…]] (GST UniProtKB® primary accession number P08515 and BCLXL UniProtKB® primary accession number Q07817-1),
resulting in an increase in anisotropy. If a compound is added which competitively binds to the same site as the probe, thereby releasing it, anisotropy decreases due to the increased amount of free probe.
An 11-point serial dilution of each compound was prepared in DMSO, the final buffer conditions were 10 mM 4-(2-hydroxyethyl)-1-piperazineethanesulfonic acid [HEPES], 150 mM NaCl, 0.05% Tween 20, pH 7.4 and 5% DMSO. The final protein concentration in the assay was 20 nM with the fluorescent probe present at 10 nM. The experiments were incubated for 2 hours at 23° C. before fluorescence polarization was measured on a Biotek SynergyNeo plate reader (Excitation 485 nm, emission 525 nm, parallel and perpendicular reads). […] The KI values were determined from the IC50 values according to Cer et al, Nucleic Acids Res, 2009, Jul. 1: 37(WebServer issue): W441-W445.

[3] = tested on: MOLT-4 cells; test: MOLT-4 cell viability, MTT assay; assay type: cell-based; settings: Homo sapiens, MOLT-4, 48 h, 48 h exposure
Method: as §1, §2

Sequence of BCLXL (Q07817 with tags, fused parts or gaps V9A/V10N): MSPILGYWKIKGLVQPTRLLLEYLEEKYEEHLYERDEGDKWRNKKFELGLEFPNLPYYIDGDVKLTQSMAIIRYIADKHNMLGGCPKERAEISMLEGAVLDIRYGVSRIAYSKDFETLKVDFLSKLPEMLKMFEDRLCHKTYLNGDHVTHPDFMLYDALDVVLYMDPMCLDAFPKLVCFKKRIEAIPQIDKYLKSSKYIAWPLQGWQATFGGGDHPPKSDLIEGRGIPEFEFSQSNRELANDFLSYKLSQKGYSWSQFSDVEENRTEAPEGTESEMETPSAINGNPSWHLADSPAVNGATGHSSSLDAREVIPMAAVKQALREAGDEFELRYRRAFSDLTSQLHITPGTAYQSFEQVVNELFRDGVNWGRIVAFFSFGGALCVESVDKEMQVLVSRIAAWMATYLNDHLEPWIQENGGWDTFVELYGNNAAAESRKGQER

With `Cc1c(Nc2nc(C(=O)O)cs2)nnc(Nc2nc3ccccc3s2)c1C` [Example 1] as the molecule, how does the pIC50 [1] read?
Its pIC50 is 4.82.

With `O=C(O)c1csc(Nc2ccc(Nc3nc4ccccc4s3)nn2)n1` [Example 4, 2-({6-[(1,3-Benzothiazol-2-yl)amino]pyridazin-3-yl}amino)-1,3-thiazole-4-carboxylic acid] as the molecule, how does the pKi [2] read?
The pKi was 6.04.

With `Cc1cc(Nc2nc(C(=O)O)cs2)nnc1Nc1nc2ccccc2s1` [Example 7, 2-({6-[(1,3-Benzothiazol-2-yl)amino]-5-methylpyridazin-3-yl}amino)-1,3-thiazole-4-carboxylic acid] as the molecule, how does the pIC50 [1] read?
Its pIC50 is less than 4.82.

How did the pKi [2] turn out when `Cc1cc(Nc2nc3ccccc3s2)nnc1Nc1nc(C(=O)O)cs1` [Example 11, 2-({6-[(1,3-Benzothiazol-2-yl)amino]-4-methylpyridazin-3-yl}amino)-1,3-thiazole-4-carboxylic acid] was run?
The pKi was 6.22.

`O=C(O)c1csc(Nc2nnc(Nc3nc4ccccc4s3)c3c2CCCC3)n1` [Example 17, 2-[[4-(1,3-Benzothiazol-2-ylamino)-5,6,7,8-tetrahydrophthalazin-1-yl]amino]thiazole-4-carboxylic acid] was tested. Which pIC50 [1] did it give?
The pIC50 was 4.87.

What about the pIC50 [3] of the same molecule?
The pIC50 was 5.10.

With `Cc1c(Nc2nc(C(=O)O)cs2)nnc(Nc2nc3ccccc3s2)c1C1CC1` [Example 20, 2-({6-[(1,3-Benzothiazol-2-yl)amino]-5-cyclopropyl-4-methylpyridazin-3-yl}amino)-1,3-thiazole-4-carboxylic acid] as the molecule, how does the pIC50 [1] read?
The pIC50 was 5.47.

What about the pIC50 [3] of the same molecule?
The pIC50 was 5.14.

How did the pIC50 [1] turn out when `Cc1cc(N(C)c2nc(C(=O)O)cs2)nnc1Nc1nc2ccccc2s1` [Example 21, 2-({6-[(1,3-Benzothiazol-2-yl)amino]-5-methylpyridazin-3-yl}(methyl)amino)-1,3-thiazole-4-carboxylic acid] was run?
The pIC50 was 5.02.

Which results are given for `Cc1c(Nc2nc3ccccc3s2)nnc(N(C)c2nc(C(=O)O)cs2)c1C` [Example 26, 2-({6-[(1,3-Benzothiazol-2-yl)amino]-4,5-dimethylpyridazin-3-yl}(methyl)amino)-1,3-thiazole-4-carboxylic acid]?
pIC50 [1]: < 4.82; pIC50 [3]: < 4.82

With `COCc1c(Nc2nc(C(=O)O)cs2)nnc(Nc2nc3ccccc3s2)c1C` [Example 29, 2-({6-[(1,3-Benzothiazol-2-yl)amino]-4-(methoxymethyl)-5-methylpyridazin-3-yl}amino)-1,3-thiazole-4-carboxylic acid] as the molecule, how does the pIC50 [1] read?
Its pIC50 is less than 4.82.

What about the pIC50 [3] of the same molecule?
Its pIC50 is less than 4.82.

With `COCCCC1(Cn2ncc(-c3sc(N(C)c4cc(C)c(Nc5nc6ccccc6s5)nn4)nc3C(=O)O)c2C)CCCCCCC1` [Example 43, 2-({6-[(1,3-Benzothiazol-2-yl)amino]-5-methylpyridazin-3-yl}(methyl)amino)-5-(1-{[1-(3-methoxypropyl)cyclooctyl]methyl}-5-methyl-1H-pyrazol-4-yl)-1,3-thiazole-4-carboxylic acid] as the molecule, how does the pKi [2] read?
The pKi was 7.72.

`Cc1c(Nc2nc(C(=O)O)cs2)nnc(Nc2nc3c(C)cccc3s2)c1C` [Example 48, 2-[[4,5-dimethyl-6-[(4-methyl-1,3-benzothiazol-2-yl)amino]pyridazin-3-yl]amino]thiazole-4-carboxylic acid] was tested. Which pKi [2] did it give?
The pKi was 5.72.

With `Cc1c(Nc2nc3ccccc3s2)nnc(Nc2nc(C(=O)O)cs2)c1CCCN1CCN(C)CC1` [Example 51, 2-({6-[(1,3-Benzothiazol-2-yl)amino]-5-methyl-4-[3-(4-methylpiperazin-1-yl)propyl]pyridazin-3-yl}amino)-1,3-thiazole-4-carboxylic acid] as the molecule, how does the pIC50 [1] read?
The pIC50 was less than 4.82.

What about the pIC50 [3] of the same molecule?
The pIC50 was less than 4.82.

`Cc1c(Nc2nc(C(=O)O)cs2)nnc(Nc2nc3c(F)cccc3s2)c1C` [Example 55, 2-[[6-[(4-Fluoro-1,3-benzothiazol-2-yl)amino]-4,5-dimethyl-pyridazin-3-yl]amino]thiazole-4-carboxylic acid] was tested. Which pKi [2] did it give?
The pKi was 7.09.

With `Cc1cc(N(C)c2nc(C(=O)O)c(N3CC(O)C3)s2)nnc1Nc1nc2ccccc2s1` [Example 72, 2-({6-[(1,3-Benzothiazol-2-yl)amino]-5-methylpyridazin-3-yl}(methyl)amino)-5-(3-hydroxyazetidin-1-yl)-1,3-thiazole-4-carboxylic acid] as the molecule, how does the pKi [2] read?
The pKi was 6.80.

With `Cc1cc(N(C)c2nc(C(=O)O)c(N3CC[C@@H](Oc4ccccc4)C3)s2)nnc1Nc1nc2ccccc2s1` [Example 79, 2-({6-[(1,3-Benzothiazol-2-yl)amino]-5-methylpyridazin-3-yl}(methyl)amino)-5-[(3R)-3-phenoxypyrrolidin-1-yl]-1,3-thiazole-4-carboxylic acid] as the molecule, how does the pKi [2] read?
Its pKi is 7.04.

`Cc1cc(N(C)c2nc(C(=O)O)c(N3CCCCC3)s2)nnc1Nc1nc2ccccc2s1` [Example 80, 2-({6-[(1,3-Benzothiazol-2-yl)amino]-5-methylpyridazin-3-yl}(methyl)amino)-5-(piperidin-1-yl)-1,3-thiazole-4-carboxylic acid] was tested. Which pKi [2] did it give?
Its pKi is 7.10.

With `Cc1cc(N(C)c2nc(C(=O)O)c(N3CCC(Oc4ccccc4)CC3)s2)nnc1Nc1nc2ccccc2s1` [Example 81, 2-({6-[(1,3-Benzothiazol-2-yl)amino]-5-methylpyridazin-3-yl}(methyl)amino)-5-(4-phenoxypiperidin-1-yl)-1,3-thiazole-4-carboxylic acid] as the molecule, how does the pKi [2] read?
The pKi was 7.80.

`Cc1cc(N(C)c2nc(C(=O)O)c(C3CCN(C)CC3)s2)nnc1Nc1nc2ccccc2s1` [Example 99, 2-({6-[(1,3-Benzothiazol-2-yl)amino]-5-methylpyridazin-3-yl}(methyl)amino)-5-(1-methylpiperidin-4-yl)-1,3-thiazole-4-carboxylic acid] was tested. Which pKi [2] did it give?
Its pKi is 5.62.

With `CNCC#Cc1ccc(OCCCc2sc(N(CCCC(O)CN(C)CCP(=O)(O)O)c3cc(C)c(Nc4nc5ccccc5s4)nn3)nc2C(=O)O)c(F)c1` (stereo not shown) [Example 196, 2-[[6-(1,3-Benzothiazol-2-ylamino)-5-methyl-pyridazin-3-yl]-[4-hydroxy-5-[methyl(2-phosphonoethyl)amino]pentyl]amino]-5-[3-[2-fluoro-4-[3-(methylamino)prop-1-ynyl]phenoxy]propyl]thiazole-4-carboxylic acid] as the molecule, how does the pIC50 [1] read?
The pIC50 was 5.79.

What about the pIC50 [3] of the same molecule?
The pIC50 was 6.06.

`CNCC#Cc1ccc(OCCCc2sc(N(CCC[N+](C)(C)C)c3cc(C)c(Nc4nc5ccccc5s4)nn3)nc2C(=O)[O-])c(F)c1` [Example 202, 2-[[6-(1,3-Benzothiazol-2-ylamino)-5-methyl-pyridazin-3-yl]-[3-(trimethylammonio)propyl]amino]-5-[3-[2-fluoro-4-[3-(methylamino)prop-1-ynyl]phenoxy]propyl]thiazole-4-carboxylate] was tested. Which pIC50 [1] did it give?
The pIC50 was 7.13.

And the pIC50 [3]?
Its pIC50 is 6.21.

Which results are given for `CNCC#Cc1ccc(OCCCc2sc(N(CCCCN(C)C)c3cc(C)c(Nc4nc5ccccc5s4)nn3)nc2C(=O)O)c(F)c1` [Example 210, 2-[[6-(1,3-Benzothiazol-2-ylamino)-5-methyl-pyridazin-3-yl]-[4-(dimethylamino)butyl]amino]-5-[3-[2-fluoro-4-[3-(methylamino)prop-1-ynyl]phenoxy]propyl]thiazole-4-carboxylic acid]?
pIC50 [1]: 7.67; pIC50 [3]: 7.69

Which results are given for `CNCC#Cc1ccc(OCCCc2sc(N(CCCCC[N+](C)(C)C)c3cc(C)c(Nc4nc5ccccc5s4)nn3)nc2C(=O)O)c(F)c1` [Example 219, 2-[[6-(1,3-Benzothiazol-2-ylamino)-5-methyl-pyridazin-3-yl]-[5-(trimethylammonio)pentyl]amino]-5-[3-[2-fluoro-4-[3-(methylamino)prop-1-ynyl]phenoxy]propyl]thiazole-4-carboxylate]?
pIC50 [1]: 6.89; pIC50 [3]: 5.90
